Data from PubChem BioAssay (NCI).
“And” between values parts separate entries of the source, which are not always exact repeats. Equal entries are not always repeated.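 Compound exposure: 48 hours, 5 concentrations, 96-well plates. GI50: concentration for 50% inhibition of growth. The concentration for full growth arrest is given as TGI.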

Experiments:
Assay in all cases: growth of human tumour cells (NCI), 48 h
SNB-19 CNS = test system: SNB-19 CNS
BT-549 breast = test system: BT-549 breast
UO-31 renal = test system: UO-31 renal
HCT-116 colon = test system: HCT-116 colon
MALME-3M melanoma = test system: MALME-3M melanoma
SK-MEL-2 melanoma = test system: SK-MEL-2 melanoma
T-47D breast = test system: T-47D breast
UACC-62 melanoma = test system: UACC-62 melanoma
HOP-62 NSCLC = test system: HOP-62 NSCLC
CAKI-1 renal = test system: CAKI-1 renal

SMILES	GI50 (SNB-19 CNS)	TGI (SNB-19 CNS)	GI50 (BT-549 breast)	TGI (BT-549 breast)	GI50 (UO-31 renal)	TGI (UO-31 renal)	GI50 (HCT-116 colon)	TGI (HCT-116 colon)	GI50 (MALME-3M melanoma)	TGI (MALME-3M melanoma)	GI50 (SK-MEL-2 melanoma)	TGI (SK-MEL-2 melanoma)	GI50 (T-47D breast)	TGI (T-47D breast)	GI50 (UACC-62 melanoma)	TGI (UACC-62 melanoma)	GI50 (HOP-62 NSCLC)	TGI (HOP-62 NSCLC)	GI50 (CAKI-1 renal)	TGI (CAKI-1 renal)
COc1ccc2cc(-c3cnc4nonc4n3)ccc2c1	4.37 µM	> 100 µM	4.39 µM	> 100 µM	3.23 µM	> 100 µM	2.12 µM	> 100 µM	4.03 µM	> 100 µM	3.66 µM	> 100 µM	1.99 µM	> 100 µM	2.32 µM	> 100 µM	5.22 µM	64 µM	2.83 µM	> 100 µM
O=S(=O)(N=C1C(Cl)=C(Cl)C(=NS(=O)(=O)c2ccccc2)C(Cl)=C1Cl)c1ccccc1	38.2 µM	> 100 µM	17.3 µM	37.5 µM	18.8 µM	48.9 µM	13.6 µM	29.1 µM	18.5 µM	56.4 µM	27.5 µM	> 100 µM	23.8 µM	> 100 µM	13.3 µM	38.4 µM	27.5 µM	80.3 µM		
C[C@@H]1C[C@H](N)C[C@H](c2ccncc2NC(=O)c2ccc(F)c(-c3c(F)cccc3F)n2)C1	15.6 µM and > 10 µM	30.3 µM and > 10 µM	10.3 µM and 5.17 µM	22.6 µM and > 10 µM	3.65 µM and 1.28 µM	18.6 µM and > 10 µM	12.1 µM and 6.94 µM	24.4 µM and > 10 µM	10.5 µM and > 10 µM	24.3 µM and > 10 µM	17.1 µM and > 10 µM	34.8 µM and > 10 µM	10.5 µM and 8.5 µM	28.5 µM and > 10 µM	14.3 µM and > 10 µM	28.2 µM and > 10 µM	10.6 µM and > 10 µM	25.2 µM and > 10 µM	7.51 µM	> 10 µM
COc1cc(-n2ccnc2-c2ccc3ccccc3c2)cc(OC)c1OC	0.131 µM	> 36.7 µM	0.246 µM	14.9 µM	0.28 µM	35 µM	0.0382 µM	15.3 µM	3.66 µM	31.9 µM	0.19 µM	26.9 µM	0.633 µM	60.7 µM	0.0657 µM	15.4 µM	0.0895 µM	26 µM	0.0853 µM	> 75.3 µM
NCCCCC(NC(=O)C(N)CCCN=C(N)N)C(=O)NC(CCCCN)C(=O)NC(CCCN=C(N)N)C(=O)NC(CCCN=C(N)N)C(=O)NC(CCC(N)=O)C(=O)NC(CCCN=C(N)N)C(=O)NC(CCCN=C(N)N)C(=O)NC(CCCN=C(N)N)C(=O)NCC(=O)NCC(=O)O (stereo not drawn)	> 50 µM	> 50 µM	> 50 µM	> 50 µM	> 50 µM	> 50 µM	> 50 µM	> 50 µM	> 50 µM	> 50 µM	> 50 µM	> 50 µM	> 50 µM	> 50 µM	> 50 µM	> 50 µM	> 50 µM	> 50 µM	> 50 µM	> 50 µM
CCSC[C@@H]1C[C@](O)(c2ccc(Cl)cc2)[C@@H](c2ccc(Cl)cc2)O1	18.8 µM	50 µM	15.2 µM	28.9 µM	16.5 µM	30.4 µM	12.6 µM	25.1 µM	15.2 µM	29.8 µM	16 µM	35 µM	14.8 µM	38.6 µM	13.9 µM	30.8 µM	16.7 µM	30.7 µM	27.6 µM	63.2 µM
CCCc1nn(C)c2c(=O)[nH]c(-c3cc(S(=O)(=O)N4CCN(C)CC4)ccc3OCC)nc12	> 100 µM	> 100 µM	> 100 µM	> 100 µM	> 100 µM	> 100 µM	> 100 µM	> 100 µM	> 100 µM	> 100 µM	> 100 µM	> 100 µM	> 100 µM	> 100 µM	> 100 µM	> 100 µM	> 100 µM	> 100 µM	> 100 µM	> 100 µM
Cc1ccc2c(C(C[N+](=O)[O-])c3ccccc3)c(-c3ccccc3)[nH]c2c1 (stereo not drawn)	43.7 µM	> 95 µM	34 µM	> 95 µM	15.4 µM	> 95 µM	30.2 µM	> 95 µM	10.2 µM	> 95 µM	46.3 µM	> 95 µM	26.4 µM	> 95 µM	14.1 µM	> 95 µM	34.2 µM	> 95 µM	4.73 µM	> 95 µM
COc1cc2nc(Nc3cccc(Cl)c3)nc(N)c2cc1OC	14.6 µM	28 µM	13.5 µM	27.8 µM	6.66 µM	20.9 µM	2.34 µM	6.35 µM	2.47 µM	6.62 µM	8.28 µM	28.5 µM	5.13 µM	24 µM	13 µM	25.7 µM	5.81 µM	18.3 µM	12.3 µM	27.9 µM
OC1CC2CCC(C1)N2CCCN1c2ccccc2Sc2ccc(Cl)cc21 (stereo not drawn)		13.5 µM		10.7 µM		7.09 µM		3.64 µM		3.59 µM		3.29 µM		5.44 µM		3.39 µM		10.4 µM		9.47 µM
COC[C@H](NC(=O)c1cnc(C)s1)C(=O)N[C@@H](COC)C(=O)N[C@@H](Cc1ccccc1)C(=O)[C@@]1(C)CO1	> 65.3 µM	> 100 µM	14.3 µM	42.6 µM	30.9 µM	> 100 µM	9.27 µM	32.6 µM	22 µM	64 µM	28.7 µM	> 91.6 µM	19.9 µM	> 71.2 µM	15.8 µM	39 µM	31.4 µM	> 95.4 µM	38.5 µM	> 100 µM
CCC(CC)n1cnc2c(-c3cnc(N)cn3)nc(N3CC4CCC(C3)O4)nc21	1.37 µM	> 100 µM	0.108 µM	2.5 µM	0.0961 µM		0.63 µM	> 100 µM	0.0472 µM	0.688 µM	0.391 µM	3.25 µM	0.0233 µM	0.217 µM	0.122 µM	0.929 µM	1.08 µM	> 100 µM	0.108 µM	1.73 µM
NC(=S)N/N=C/c1ccc(OC(=O)COc2cc(Cl)c(Cl)cc2Cl)cn1	5.87 µM	> 100 µM	3.92 µM	> 100 µM	3.18 µM	> 100 µM	4.25 µM	> 100 µM	4.96 µM	> 100 µM	12.7 µM	> 100 µM	2.87 µM	> 100 µM	3.46 µM	22.4 µM	3.68 µM	38.4 µM	3.97 µM	> 100 µM
CC1(C)N=C(N)N=C(N)N1c1ccc(CNC(=O)Nc2ccc(S(=O)(=O)F)c(Cl)c2)c(Cl)c1	3.64 µM	> 100 µM	8.51 µM	> 100 µM	53.7 µM	> 100 µM	0.379 µM	> 100 µM	17.3 µM	> 100 µM	12.2 µM	> 74.9 µM	11.6 µM	> 100 µM	0.303 µM	> 100 µM	9.81 µM	> 100 µM	12.5 µM	> 100 µM
Cc1ccc(OP(=O)(Oc2ccc(C)cc2)N2C=Cc3ccccc3C2C#N)cc1 (stereo not drawn)		> 100 µM		> 100 µM		> 100 µM		> 100 µM		> 100 µM		> 100 µM		> 100 µM		> 100 µM		> 100 µM		> 100 µM
O=C(O)c1cccc(S(=O)(=O)NCCO)c1		> 100 µM		> 100 µM		> 100 µM		> 100 µM		> 100 µM		> 100 µM		> 100 µM		> 100 µM		> 100 µM		> 100 µM
CC1=C(C#N)C23C(=O)N(c4ccccc4)C(=O)C2=C(O)C=CC3(O)N1Cc1ccc(Cl)cc1Cl (stereo not drawn)	3.8 µM	14.9 µM	1.46 µM	3.17 µM	5.42 µM	19.6 µM	1.73 µM	3.45 µM	3.14 µM	9.95 µM	2.98 µM	11.5 µM	2.93 µM	14.6 µM	1.88 µM	4.4 µM	4.31 µM	15.7 µM	2.94 µM	12.1 µM
Cc1ccc(S(=O)(=O)ON2C(=O)c3cccc4cc([N+](=O)[O-])cc(c34)C2=O)cc1		> 100 µM		> 100 µM		> 100 µM		> 100 µM		> 100 µM		> 100 µM		> 100 µM		> 100 µM		> 100 µM		> 100 µM
Fc1cccc(COc2ccc(Nc3ncnc4onc(-c5ccccc5)c34)cc2)c1	0.339 µM	> 100 µM	0.347 µM	> 100 µM	3 µM	26.8 µM	0.0546 µM	> 37.4 µM	0.206 µM	> 100 µM	0.426 µM	> 100 µM	0.218 µM	> 100 µM	0.496 µM	> 64.4 µM	0.406 µM	> 100 µM	0.573 µM	> 100 µM
O=C(c1c(F)c(F)c(F)c(F)c1F)c1c(F)c(F)c(F)c(F)c1F		16.3 µM		6.68 µM		2.64 µM		2.96 µM		3.23 µM		7.02 µM		> 100 µM		3.97 µM		3.49 µM		1.69 µM
COc1ccccc1C#Cc1ccccc1C#Cc1ccc(OCCCCCCOc2ccccc2C#Cc2ccccc2C#Cc2ccccc2OC)cc1	> 100 µM	> 100 µM	> 100 µM	> 100 µM	> 100 µM	> 100 µM	> 100 µM	> 100 µM	> 100 µM	> 100 µM	> 100 µM	> 100 µM	> 100 µM	> 100 µM	> 100 µM	> 100 µM	> 100 µM	> 100 µM	> 100 µM	> 100 µM
Cc1ccc(CNc2ccc3nc(CCC4CCCCC4)[nH]c3c2)cc1	3.54 µM	> 100 µM	2.45 µM	7.34 µM	1.35 µM	3.3 µM	1.95 µM	5.05 µM	1.74 µM	4.07 µM	2.31 µM	5.5 µM	2.56 µM	8.5 µM	1.74 µM	3.4 µM	2.08 µM	4.83 µM	2.67 µM	7.03 µM
CC(=O)O.CN1[CH-]N(Cc2ccc(C#N)cc2)c2ccccc21.[Ag+]	29.3 µM	> 100 µM	18.8 µM	38.4 µM	16.2 µM	30.3 µM	18.5 µM	42.4 µM	19.8 µM	41.5 µM	> 100 µM	> 100 µM	14.8 µM	60.1 µM	16.4 µM	31 µM	47.4 µM	> 100 µM	18.2 µM	33.9 µM
O=C(O)Cc1cccc2c(=O)cc(-c3ccccc3)oc12	> 909 µM	> 1000 µM	> 1000 µM	250 µM and > 1000 µM	25.5 µM	> 64.4 µM and 174 µM and 334 µM	294 µM	212 µM and > 868 µM	725 µM	> 1000 µM	844 µM	250 µM and > 1000 µM	690 µM	> 1000 µM	475 µM	> 1000 µM		250 µM and > 1000 µM	> 46.8 µM and 163 µM	> 72 µM and 194 µM and 420 µM
CN(C)c1ccc(/C=N/NC(N)=S)nc1	5.64 µM	> 100 µM	4.39 µM	> 100 µM	2.34 µM	7.46 µM	3.3 µM	> 100 µM	7.91 µM	> 100 µM	> 100 µM	> 100 µM	4.32 µM	> 100 µM	3.39 µM	> 100 µM	3.11 µM	> 100 µM		
NC(=O)CC1OC(=O)Cc2cc3c(c(O)c21)C(=O)c1c(O)cccc1C3=O (stereo not drawn)		> 100 µM		> 100 µM		> 100 µM		> 100 µM		> 100 µM		> 100 µM		> 100 µM		> 100 µM				> 100 µM
